{
  "source": "patent US20190060287A1",
  "about": "(ADARE PHARMACEUTICALS, INC., priority 2017, published 2019)",
  "origin": "cited, not measured here",
  "key": {"[1]": {"details": "multiple dose controlled clinical studies"}},
  "note": "Where two headings read alike, the source gives them in different places.",
  "data": [
    {"molecule": "Clc1ccc2nsnc2c1NC1=NCCN1", "note": "[tizanidine, Tizanidine]", "values": [
      {"measurement": "patients reporting that they had been drowsy during the 6 hour study", "setting": "single dose 8 mg", "value": 76, "unit": "%"},
      {"measurement": "patients reporting that they had been drowsy during the 6 hour study", "setting": "single dose 16 mg", "value": 92, "unit": "%"},
      {"measurement": "patients reporting sedation as a secondary event", "setting": "[1]; patients receiving any dose of tizanidine", "value": 48, "unit": "%"},
      {"measurement": "cases in which the sedation was rated as severe", "setting": "[1]; share of the sedation cases", "value": 10, "unit": "%"}
    ]}
  ]
}
